Reference: PubChem BioAssay AID179 (DTP/NCI, 2004)
Calls of active or inactive are those of the source.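 Rule for the calls: active = compounds giving half or more protection of infected cells from virus-caused growth loss, again on retest; inactive = the rest.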 Where a SMILES comes first, the peptide text is derived from it.

Tested on: CEM cells HIV-1 protection, formazan growth assay
Assay: NCI AIDS Antiviral Assay
Settings: for IC50: measured here: growth of uninfected CEM cells
Procedure, shortened: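 Steps: treat uninfected and HIV-1-infected human CEM cells at five drug levels; quantify growth by soluble formazan; retest any compound reaching 50% protection; classify actives from the retest.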

| SMILES | EC50 [µM] | IC50 [µM] | outcome |
| --- | --- | --- | --- |
| NC(=O)C1CC2(C1)CC(C(N)=O)C2 (centres undefined) | > 245 | > 245 | – |
| COc1ccccc1N1CCCSC1=Nc1ccccc1 | 81.3 | 214 | – |
| C[C@]12CCC(=O)C=C1CC[C@@H]1[C@@H]2C(=O)C[C@@]2(C)[C@H]1CC[C@]2(O)C(=O)CO | > 200 | > 200 | – |
| CCCCCCCCS(=O)(=O)O | > 200 | > 200 | – |
| C=CC(=O)N1C/C(=C\c2ccccc2)C(=O)/C(=C/c2ccccc2)C1 | > 15.8 | 0.933 | – |
| Cc1nn(C(=O)c2ccccc2O)c2c1C(c1ccc(O)cc1)SC(N)=N2 (centres undefined) | > 2 | 0.129 | – |
| CC(C)(C)C#COC(=O)c1ccccc1 | > 251 | > 251 | – |
| Cc1c(Cl)cccc1NC(=O)C(=O)C1C(=O)CC(C)(C)CC1=O | > 741 | > 741 | – |
| Nc1ccc2nc(Nc3ccc(Cl)c(Cl)c3)cnc2c1 | > 23.4 | > 23.4 | – |
| O=C1c2ccccc2C(=O)C1c1ccc2c(ccc3ccccc32)n1 | – | – | inactive |
| CCOP(=O)(OCC)C(C(=O)OC)C(=O)C(=O)Nc1cccc([N+](=O)[O-])c1 (centres undefined) | > 617 | > 617 | – |
| O=C(N=Nc1ccccc1Br)NNc1ccccc1Br | > 200 | > 100 | – |
| O=C1CC(NC(=O)C(F)(F)F)c2c(Br)sc(N3CCNCC3)c21 (centres undefined) | > 200 | 162 | – |
| CC(=S)N=Cc1c(C)[nH]n(-c2ccccc2)c1=O | > 100 | 41.7 | – |
| CCCCCCCCCCCCCCCC(=O)Nc1ccn(C2CCC(COP(=O)(O)OCC3OC(n4ccc(NC(=O)CCCCCCCCCCCCCCC)nc4=O)CC3OP(=O)(O)OCC3OC(n4ccc(NC(=O)CCCCCCCCCCCCCCC)nc4=O)CS3)O2)c(=O)n1 (centres undefined) | 1.1 | 83.2 | – |
| C=CC(C)(C)c1cc(O)c2oc3c(O)cccc3c(=O)c2c1O | > 151 | 37.2 | – |
| CC1(C)[C@H](CO)C(CO)[C@@H]1n1cnc2c(N)ncnc21 (some centres undefined) | > 912 | > 912 | – |
| CCc1cccc(C(C)C)c1C1C(=O)C(=O)N(c2nc3ccccc3s2)C(=O)C1=O | – | – | inactive |
| O=C(n1c(=O)n(-c2ccc(Cl)cc2)c(=O)n1C(=O)C(Cl)(Cl)Cl)C(Cl)(Cl)Cl | > 200 | > 200 | – |
| O=c1[nH]n(CCc2ccccc2CCl)c2ccc([N+](=O)[O-])cc12 | > 200 | 50.1 | – |
| O=C(CC1C(=O)Nc2ccccc2S1(=O)=O)Nc1cc(Cl)ccc1Cl (centres undefined) | > 18.2 | > 18.2 | – |
| Cn1cnc(N)c(N=O)c1=O | > 200 | > 200 | – |

| SMILES | EC50 [µM] | IC50 [µM] | outcome |
| --- | --- | --- | --- |
| Nc1nc2c(c(-c3cccc(Cl)c3)n1)COC/C2=C\c1cccc(Cl)c1 | > 200 | > 200 | – |
| O=C(O)CCCCCCCCCC(=O)O | > 794 | > 794 | – |
| N#CC1(C#N)NC(c2ccccc2)C(C#N)(C#N)NC1c1ccccc1 (centres undefined) | > 200 | > 200 | – |
| Cc1cc(-c2ccccc2)c2ccc3c(-c4ccccc4)cc(C)nc3c2n1.Cc1cc(-c2ccccc2)c2ccc3c(-c4ccccc4)cc(C)nc3c2n1.O=C1OC(C(O)C[O-])C(O)=C1O.[Cu+] | > 25.1 | 0.708 | – |
| C=C(C)CC1(O[Si](C)(C)C)C(=O)C(OCC)=C1OCC (centres undefined) | > 200 | > 200 | – |
| O=C(Nc1ccc(C(F)(F)F)cc1[N+](=O)[O-])C(=O)C1NC(=S)NC1=O (centres undefined) | > 95.5 | > 95.5 | – |
| COC1OC2=CCC3C(=O)NC(=O)C3C2[C@H](OC)C1OC (some centres undefined) | – | – | inactive |
| CC(C)CCC[C@@H](C)[C@H]1CC[C@H]2[C@@H]3CCC4C[C@@H](OP(=O)(O)OCCC=C(c5cc(Cl)c(O)c(C(=O)O)c5)c5cc(Cl)c(O)c(C(=O)O)c5)CC[C@]4(C)[C@H]3CC[C@]12C (some centres undefined) | > 200 | 33.9 | – |
| CS(=O)(=O)NC1C(=O)c2ccccc2OC1c1ccccc1 (centres undefined) | > 200 | > 200 | – |
| C=C(CN(C)C)c1ccccn1 | > 200 | > 200 | – |
| Clc1ccc(C2C3COc4ccccc4C3=NN2c2ccccc2)cc1 (centres undefined) | > 151 | 1.95 | – |
| CCC(C)C(NC(=O)CNC(=O)CN)C(=O)NCC(=O)NCC(=O)O (centres undefined) (HELM PEPTIDE1{G.G.[CCC(C)C(N[*:1])C(=O)[*:2]].G.G}$$$$V2.0) | > 69.2 | > 69.2 | – |
| COC(=O)C1(C)CCCC2(C)C1CCC13OCC(CC21)C1(C(C)C)OC31 (centres undefined) | – | – | inactive |
| COc1ccc(-n2c(C)nc3ccc(NC4OC(CO)C(O)C(O)C4O)cc3c2=O)cc1 (centres undefined) | > 200 | > 200 | – |
| C1=CC2CCC1CN2CCC1CNc2ccccc21 (centres undefined) | – | – | inactive |
| CC(=O)NC(CCCN(Cc1ccccc1)C(=O)NCCCl)C(=O)NCc1ccccc1 (centres undefined) | > 389 | 347 | – |
| Cc1cc(NS(=O)(=O)c2ccc(N=c3c4ccccc4n(Cc4ccccc4)c4ccccc34)cc2)no1 | – | – | inactive |
| CCOC(CNCCC(=O)OC)OCC | – | – | inactive |
| Cc1nnc2n1N=C(c1ccc(-c3ccc([N+](=O)[O-])cc3)o1)CS2 | > 5.89 | > 5.89 | – |
| COC(=O)CCCc1ccc2c(c1)CC1(C2)Cc2cc3c(cc2C1)CCCC3 | > 200 | 81.3 | – |
| O=C(O)CNC(=O)c1ccccc1SC(=O)CCCC[n+]1ccccc1 | > 200 | > 200 | – |
